Data published in patent publication US20040242669A1, “Method of treating deficits associated with brain injury” (priority 2003, published 2004).
Marks after values point to notes of the source that are not given here.

Legend:
Type in all cases: in vivo, rat
[1] = tested on: animals with hypobaric hypoxia-induced amnesia; assay: Shuttle-box active avoidance acquisition, hypobaric hypoxia-induced amnesia; details: for Learners / CARs: hypobaric hypoxia; for CARs: mean ± S.E.M.
Protocol: (§1) Male rats of the Sprague-Dawley strain (purchased from Charles River, Italy) weighing 280±20 g were used throughout all experiments. The animals were housed two-three to a cage under a constant light-dark cycle (lights on between 8.00 and 20.00) at 21° C. Commercial food and tap water were available ad libitum. All animals were used only once in the behavioral experiments.
(§2) Ropinirole (ropinirole hydrochloride, SmithKline Beecham, Italy) and dihydroergocryptine (DHECP) α-dihydroergocryptine methanesulfonate, Monsanto, Italy) were dissolved in saline and injected subcutaneously (s.c.) at the dose of 0.5 and 1 mg/kg/day for 7 days. In the experiments with kainate-induced convulsions, ropinirole or DHECP were injected intravenously (i.v.) 30 min prior, and again at the same time of the intracerebroventricular (i.c.v) injection on kainic acid; Control animals received an injection of saline alone with the same procedure.
Shuttle-box active avoidance acquisition was studied in a single session test as described in Bohus and De Wied, Endogenous Peptides and Learning and Memory Processes. Academic Press, New York, pp59-775, (1981). Briefly, the rats were trained to avoid the unconditioned stimulus (US) of a scrambled electrical foot-shock (0.20 mA) delivered through the grid floor. The conditioned stimulus (CS) was a buzzer presented for 3 s prior to the US. If no escape occurred within 20 s of CS/US presentation, the shock was terminated. A maximum of 30 conditioning trials were given with a variable intertrial interval averaging 60 s. The learning criterion was five consecutive conditioned avoidance responses (CARs). For those animals that reached the criterion in less than 30 trials, the remaining trials until 30 were considered as CARs. Indexes of avoidance behaviour were the total number of CARs and the percent number of learners per group.
(§3) In the first experiment, the effects of ropinirole or DHECP were studied on amnesia induced by hypobaric hypoxia in rats. After a 7-day pretreatment with ropinirole, DHECP or saline, a group of animals was subjected to acute hypobaric hypoxia by means of a hypobaric chamber (Chantiers et Ateliers de Bretagne, France) causing depression to 300 mmHg (Boismare et al., Gerentology, 24, 6-13 (1978)). After 3 min in the chamber, the animals were removed and admitted for behavioral testing. Intact control rats were also introduced into the chamber but not subjected to hypobaric hypoxia.

[2] = tested on: animals with hypobaric hypoxia-induced amnesia; assay: Step-through passive avoidance, hypobaric hypoxia-induced amnesia; details: for Latency: hypobaric hypoxia, median latency to re-enter dark box, max 300 s
Protocol: as §1, §2
Passive avoidance behaviour was studied in a step-through type of passive avoidance situation (Ader et al., Psycon Sci, 26, 125-128 (1972)). Briefly the rats were adapted to the apparatus consisting of a large dark compartment equipped with a grid floor and a mesh-covered elevated runway attached to the front centre of the dark chamber. Adaptation training was followed by a single trial in which the rats were placed on the elevated platform and allowed to enter the dark box. Three such trials were given on the next day with an intertrial interval of 5 min after the trial. The rats received a single 2-s unavoidable scrambled foot-shock (0.20 mA) immediately after entering the dark compartment. Retention of the response was tested 24 h after the learning trial. The rats were placed on the elevated runway and the latency to re-enter the shock compartment was recorded up to a maximum of 300 s.
as §3

[3] = tested on: animals with chronic brain occlusive ischemia; assay: Open field spontaneous motor activity, chronic brain occlusive ischemia; details: for Ambulation / Defecation / Grooming / Rearing: 5 min open field, mean ± S.E.M.
Protocol: as §1
(§4) A number of animals were subjected to a manipulation of the four major arteries of the brain with a method similar to that described by Pulsinelli et al., Ann. Neurol, 11, 491-498 (1982). Both vertebral arteries were cauterised under sodium pentobarbital anaesthesia and polyethylene cuffs PE-10 were placed loosely around the common carotid arteries without completely interrupting carotid blood flow. Two months after operation, all surviving animals showing no neurological gross abnormalities were admitted to drug treatment. Animals undergoing a sham operation were considered as controls.
as §2
Spontaneous motor activity was scored in a circular open field arena as described by Weijnen and Slangen, Pituitary, Adrenal and the Brain, pp221-235 (1982). Animals were put inside a circular lit-up arena, with the bottom divided into 27 areas of equal size.
(§5) Animals with 2-month chronic brain occlusive ischemia, were subjected to a treatment with ropinirole, DHECP or saline for 7 days. At the end of treatment, the animals were admitted to behavioral testing. Controls were those animals with sham manipulation of brain arteries.

[4] = tested on: reduced glutathione in brain areas of rats subjected to chronic brain occlusive ischemia; assay: Brain glutathione content and redox index after chronic brain occlusive ischemia; details: for reduced glutathione content: mean ± S.E.M.
From the text: as §4
At the end of the behavioral studies, the brain of animals sacrificed by decapitation were taken and rapidly frozen for analysis. Dissection and weighing were carried out at −25° C. The frozen forebrains were immediately powered under liquid nitrogen by an electromechanical apparatus and stored at […]. The assay of reduced and oxidized glutathione by 5,5′-dithibis-(2-nitrobenzoic acid) in frozen forebrain powder was carried out within 3 h, utilizing perchloric acid and N-ethylmaleimide in presence of ethylenediamidetetraacetic acid for the extraction procedure (Tietze, Anal Biochem, 27, 502-522, (1969)).
as §5
All animals used for hypobaric hypoxia induced amnesia and for chronic brain occlusive ischemia was sacrificed at the end behavioral procedure for biochemical analyses.

[5] = tested on: animals with chronic brain occlusive ischemia; assay: Step-through passive avoidance, chronic brain occlusive ischemia; details: for Latency: median latency to re-enter dark box, max 300 s
Protocol: as §1, §4, §2, §5

[6] = hypobaric hypoxia-induced amnesia, summary of Table 1

`CC(C)C[C@H]1C(=O)N2CCC[C@H]2[C@]2(O)O[C@](NC(=O)[C@@H]3C[C@@H]4c5cccc6[nH]cc(c56)C[C@H]4N(C)C3)(C(C)C)C(=O)N12` [DHECP, α-dihydroergocryptine methanesulfonate] was tested, and the “number of CARs and percent number of learners in the shuttle-box (effect of treatment, in words)” value [1, 6] was “increase in these behavioral parameters, however, for the latter only with the greater dose”, the Learners ([1]; 0.5 mg/kg/day s.c. for 7 days) was 30^c percent and the CARs ([1]; 0.5 mg/kg/day s.c. for 7 days) was 13.0 ± 1.3^a. For the same compound, the Learners ([1]; 1 mg/kg/day s.c. for 7 days) was 80^d percent, the CARs ([1]; 1 mg/kg/day s.c. for 7 days) was 18.1 ± 1.2^b and the “latency to re-enter the dark box (effect of treatment, in words)” value [2, 6] was “increase in these behavioral parameters, however, for the latter only with the greater dose”. The Latency ([2]; 0.5 mg/kg/day s.c. for 7 days) was 30^e, the Latency ([2]; 1 mg/kg/day s.c. for 7 days) was 74^f and the Ambulation ([3]; 0.5 mg/kg/day s.c. for 7 days) was 68.9 ± 6.6^a,e. The Defecation ([3]; 0.5 mg/kg/day s.c. for 7 days) was 3.4 ± 0.9^a, the Grooming ([3]; 0.5 mg/kg/day s.c. for 7 days) was 22.2 ± 2.3 and the Rearing ([3]; 0.5 mg/kg/day s.c. for 7 days) was 16.4 ± 1.3^e. The Ambulation ([3]; 1 mg/kg/day s.c. for 7 days) was 73.1 ± 5.6^a,e, the Defecation ([3]; 1 mg/kg/day s.c. for 7 days) was 3.7 ± 1.3^a and the Grooming ([3]; 1 mg/kg/day s.c. for 7 days) was 23.3 ± 2.1. The Rearing ([3]; 1 mg/kg/day s.c. for 7 days) was 16.5 ± 1.9^e, the “ambulation and rearing (effect of treatment, in words)” value ([3]; to a level similar to that of intact controls) was “increased” and the “glutathione redox index (glutathione reduced/glutathione oxidized ratio)” value ([4]; Cortex, 0.5 mg/kg) was 2.5. For the same compound, the reduced glutathione content ([4]; Cortex, 0.5 mg/kg) was 2.3 ± 0.1 mM, the “glutathione redox index (glutathione reduced/glutathione oxidized ratio)” value ([4]; Cortex, 1 mg/kg) was 2.3 and the reduced glutathione content ([4]; Cortex, 1 mg/kg) was 2.6 ± 0.2 mM. For the same compound, the “glutathione redox index (glutathione reduced/glutathione oxidized ratio)” value ([4]; Hippocampus, 0.5 mg/kg) was 1.8, the reduced glutathione content ([4]; Hippocampus, 0.5 mg/kg) was 2.0 ± 0.2 mM and the “glutathione redox index (glutathione reduced/glutathione oxidized ratio)” value ([4]; Hippocampus, 1 mg/kg) was 2.2. For the same compound, the reduced glutathione content ([4]; Hippocampus, 1 mg/kg) was 2.3 ± 0.3 mM, the “glutathione redox index (glutathione reduced/glutathione oxidized ratio)” value ([4]; Hypothalamus, 0.5 mg/kg) was 2.6 and the reduced glutathione content ([4]; Hypothalamus, 0.5 mg/kg) was 2.8 ± 0.2 mM. The “glutathione redox index (glutathione reduced/glutathione oxidized ratio)” value ([4]; Hypothalamus, 1 mg/kg) was 2.7, the reduced glutathione content ([4]; Hypothalamus, 1 mg/kg) was 2.7 ± 0.2 mM and the “glutathione redox index (glutathione reduced/glutathione oxidized ratio)” value ([4]; Striatum, 0.5 mg/kg) was 0.7. For the same compound, the reduced glutathione content ([4]; Striatum, 0.5 mg/kg) was 1.8 ± 0.2 mM, the “glutathione redox index (glutathione reduced/glutathione oxidized ratio)” value ([4]; Striatum, 1 mg/kg) was 0.7 and the reduced glutathione content ([4]; Striatum, 1 mg/kg) was 1.7 ± 0.2 mM. The Latency ([5]; 0.5 mg/kg/day s.c. for 7 days) was 46^c,d, the Latency ([5]; 1 mg/kg/day s.c. for 7 days) was 58^d and the “latency to re-enter the dark-box (effect of treatment, in words)” value ([5]; Table 2) was “increased”.
